Source: PubChem BioAssay AID328 (DTP/NCI, 2004)
Toxic doses and inconclusive results are not listed. Rule for the calls: active = survival T/C of 150% or more; inactive = T/C below 125% in these data.

Tested on: BDF1 mice, P388 leukemia ip, median survival T/C
Test: NCI In Vivo Anticancer Drug Screen. Data for tumor model P388 Leukemia (intraperitoneal) in B6D2F1 (BDF1) mice
Conditions: endpoint: median survival time, higher = longer survival
Outline: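 Reported as T/C, where T is the survival measurement in dosed animals and C the same measurement in vehicle controls.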

[1] = dose: 100.0 mg/kg/injection, schedule: Q01DX009 (ip), vehicle: saline
[2] = dose: 100.0 mg/kg/injection, schedule: Q04DX003 (ip), vehicle: saline with Tween-80
[3] = dose: 100.0 mg/kg/injection, schedule: Q04DX003 (ip), vehicle: saline
[4] = dose: 200.0 mg/kg/injection, schedule: Q01DX009 (ip), vehicle: saline
[5] = dose: 200.0 mg/kg/injection, schedule: Q04DX003 (ip), vehicle: saline with Tween-80
[6] = dose: 400.0 mg/kg/injection, schedule: Q04DX003 (ip), vehicle: saline with Tween-80
[7] = dose: 50.0 mg/kg/injection, schedule: Q01DX009 (ip), vehicle: saline with Tween-80
[8] = dose: 100.0 mg/kg/injection, schedule: Q01DX009 (ip), vehicle: saline with Tween-80
[9] = dose: 200.0 mg/kg/injection, schedule: Q01DX009 (ip), vehicle: saline with Tween-80
[10] = dose: 100.0 mg/kg/injection, schedule: Q01DX009 (ip), vehicle: Klucel (hydroxypropylcellulose) (HPC)
[11] = dose: 100.0 mg/kg/injection, schedule: Q04DX003 (ip), vehicle: Klucel (hydroxypropylcellulose) (HPC)
[12] = dose: 200.0 mg/kg/injection, schedule: Q01DX009 (ip), vehicle: Klucel (hydroxypropylcellulose) (HPC)
[13] = dose: 200.0 mg/kg/injection, schedule: Q04DX003 (ip), vehicle: Klucel (hydroxypropylcellulose) (HPC)
[14] = dose: 400.0 mg/kg/injection, schedule: Q01DX009 (ip), vehicle: saline with Tween-80

Measured: T/C

O=S(=O)(O)C1(O)CCCCC1
inactive: [1] 105 % of control | [2] 95 % of control | [3] 109 % of control | [4] 100 % of control | [5] 104 % of control | dose: 200.0 mg/kg/injection, schedule: Q04DX003 (ip), vehicle: saline 104 % of control | dose: 400.0 mg/kg/injection, schedule: Q01DX009 (ip), vehicle: saline 105 % of control | [6] 100 % of control | dose: 400.0 mg/kg/injection, schedule: Q04DX003 (ip), vehicle: saline 100 % of control

CCCCCCCCCCCC[N+](C)(C)CCC[N+](C)(C)CCCCCCCCCCCC
inactive: dose: 6.25 mg/kg/injection, schedule: Q01DX009 (ip), vehicle: saline 109 % of control | dose: 12.5 mg/kg/injection, schedule: Q01DX009 (ip), vehicle: saline 116 % of control

NC(=O)c1ccccc1NC(=O)c1ccccc1C(=O)O
inactive: [7] 99 % of control
active: [8] 151 % of control | [9] 153 % of control

NS(=O)(=O)CS(=O)(=O)Oc1ccccc1
inactive: dose: 100.0 mg/kg/injection, schedule: Q01DX001 (ip), vehicle: saline with Tween-80 100 % of control | dose: 200.0 mg/kg/injection, schedule: Q01DX001 (ip), vehicle: saline with Tween-80 99 % of control

O=C1NNCc2c1oc1ccccc21
inactive: [7] 96 % of control | [8] 114 % of control | [9] 90 % of control

CNC(=S)N(N)c1ccccc1
inactive: dose: 50.0 mg/kg/injection, schedule: Q01DX009 (ip), vehicle: Klucel (hydroxypropylcellulose) (HPC) 108 % of control | [10] 94 % of control | [11] 90 % of control | [12] 95 % of control | [13] 95 % of control

C[C@]12CC[C@@H]3c4ccc(O)cc4CC[C@H]3[C@@H]1C[C@H](O)C2
inactive: [10] 100 % of control | [11] 100 % of control | [12] 95 % of control | [13] 100 % of control | dose: 400.0 mg/kg/injection, schedule: Q01DX009 (ip), vehicle: Klucel (hydroxypropylcellulose) (HPC) 112 % of control | dose: 400.0 mg/kg/injection, schedule: Q04DX003 (ip), vehicle: Klucel (hydroxypropylcellulose) (HPC) 91 % of control

CC(C)=NNC(=O)C1CCN1Cc1ccccc1 (centres undefined)
inactive: dose: 50.0 mg/kg/injection, schedule: Q01DX001 (ip), vehicle: saline 102 % of control | dose: 100.0 mg/kg/injection, schedule: Q01DX001 (ip), vehicle: saline 98 % of control | dose: 200.0 mg/kg/injection, schedule: Q01DX001 (ip), vehicle: saline 93 % of control | dose: 400.0 mg/kg/injection, schedule: Q01DX001 (ip), vehicle: saline 102 % of control

COc1ccc(C2(C#N)CCCC2)cc1
inactive: [8] 100 % of control | [9] 108 % of control | [14] 108 % of control

O=C(/C=N/O)Nc1cc(Cl)ccc1Cl
inactive: [8] 95 % of control | [2] 100 % of control | [9] 90 % of control | [5] 100 % of control | [14] 90 % of control | [6] 100 % of control

COC(=O)N1CCC2OC2C1 (centres undefined)
inactive: dose: 50.0 mg/kg/injection, schedule: Q01DX009 (ip), vehicle: saline 99 % of control | [1] 107 % of control | [4] 100 % of control

CCCCOP(=O)(N1CC1CC)N1CC1CC (centres undefined)
active: [3] 150 % of control | dose: 300.0 mg/kg/injection, schedule: Q04DX003 (ip), vehicle: saline 176 % of control
inactive: dose: 50.0 mg/kg/injection, schedule: Q04DX003 (ip), vehicle: saline 123 % of control | dose: 60.0 mg/kg/injection, schedule: Q04DX003 (ip), vehicle: saline 122 % of control | dose: 85.0 mg/kg/injection, schedule: Q04DX003 (ip), vehicle: saline 122 % of control | dose: 133.0 mg/kg/injection, schedule: Q04DX003 (ip), vehicle: saline with Tween-80 109 % of control | dose: 133.0 mg/kg/injection, schedule: Q04DX003 (ip), vehicle: saline 100 % of control | [5] 109 % of control
